Experimental data: patent US12042561B2, “Hydrophobic molecule-induced branched polymer aggregates and their use” (ANP Technologies, Inc., priority 2011, dated 2024)

Columns and labels:
[1] = tested on: MCF-7 human breast cancer cells; experiment: Cell survivability (MTS), MCF-7; conditions: varying concentrations based on amount of drug, FIG. 17
Excerpt: (§1) Metabolism in viable cells produces “reducing equivalents,” such as, NADH or NADPH. Such reducing compounds pass electrons to an intermediate electron transfer reagent that can reduce the tetrazolium product, MTS (Promega), into an aqueous, soluble formazan product, which is colored. At death, cells rapidly lose the ability to reduce tetrazolium products. The production of the colored formazan product, therefore, is proportional to the number of viable cells in culture.
(§2) The CellTiter 96® Aqueous products (Promega) are MTS assays for determining the number of viable cells in culture. […] A single reagent added directly to the assay wells at a recommended ratio of 20 μl reagent to 100 μl of culture medium was used. Cells were incubated 1-4 hours at 37° C. and then absorbance was measured at 490 nm.
(§3) Varying concentrations of CPT-11 and the camptothecin branched polymer aggregates described above were prepared.
(§4) Two cancer cell lines were maintained in suitable medium under recognized culture conditions. MCF-7 is a human breast cancer cell line and H460 is a human epithelial lung cancer cell line. Those cell lines were exposed to varying concentrations of CPT-11 and concentrations of the camptothecin aggregates based on the amount of drug. Cell survivability was assessed as described above.

[2] = tested on: H460 human epithelial lung cancer cells; experiment: Cell survivability (MTS), H460; conditions: varying concentrations based on amount of drug, FIG. 18
Excerpt: as §1, §2, §3, §4

Structure (SMILES): CCc1c2c(nc3ccc(OC(=O)N4CCC(N5CCCCC5)CC4)cc13)-c1cc3c(c(=O)n1C2)COC(=O)[C@]3(O)CC [CPT-11, Irinotecan]
- cytotoxicity [1]: increased with increasing drug concentration
- cytotoxicity [2]: dose response curve of cytotoxicity
